Consider 20 compounds from patent US7906556B2, “Methods of treating amyloidosis using cyclopropyl derivative aspartyl protease inhibitors” (Elan Pharmaceuticals, Inc., priority 2005, dated 2011).

Data set [1] has as its system beta-secretase versus catD. Put plainly: Selectivity of compounds for inhibiting BACE over catD (ratio of IC50 values). The settings on record: each value is an average of four experimental runs; multiple values = more than one experiment. The format is biochemical. The method, then: Investigation of potential beta-secretase inhibitors produced compounds with increased selectivity for beta-secretase over other aspartyl proteases such as cathepsin D (catD), cathepsin E (catE), Human Immunodeficiency Viral (HIV) protease, and renin. Selectivity was calculated as a ratio of inhibition (IC50) values in which the inhibition of beta-secretase was compared to the inhibition of other aspartyl proteases.
The compounds of formula (I) can be selective for beta-secretase versus catD.
In the following examples, each value is an average of four experimental runs and multiple values for one compound indicate that more than one experiment was conducted.

Data set [2] is described as follows: In vitro permeability across a monolayer of MDCK cells in a transwell device. The settings on record: dog, MDCK, test compound 5 μM, 2 h at 37° C., apical to basolateral, read-out: Permeability Forward A > B. In kind it is in vitro ADME, Canine. The protocol: (§1) Compounds were evaluated for permeability across a monolayer of Madin-Darby Canine Kidney (MDCK) cells in a transwell device following culturing for 4 days. Cells were grown in Dulbecco's Modified Eagle Media with Glutamax (Invitrogen Cat #10569-010) with 10% Heat Inactivated Fetal Bovine Serum (media kitchen) and Penicillin/streptomycin 40 units/mL (media kitchen) at 37° C. and 5% CO2, and were plated into 12 mm diameter transwell plates (12 wells/plate, Costar Cat#3401). A 0.5 mL of cell suspension (400,000 cells/mL) was placed on membrane and a 1.5 mL media in the bottom wells on day 1. On day 2 and day 3, cells were fed with new media. On day 4, the lower chambers were filled with modified Hank's Balanced Salt Solution (mHBSS, media kitchen) with or without 5 μM Cyclosporin A (CspA, Sigma Cat#C-3662). Media was removed from upper chambers and filled with mHBSS with or without CspA, and incubated 30 min at 37° C. with light shaking. Donor chambers were emptied, and filled with test compound at 5 μM in mHBSS. Lucifer Yellow (100 μM, LY, Sigma Cat#L-0144) was added to all of the upper chambers to test for monolayer integrity (tight junctions). Plates were incubated for 2 h at 37° C. with shaking. After 2 h, both the donor and receiver wells were sampled. The bottom chambers were read in a fluorometer to assess LY leakage, and then the media from all wells were assayed by LC/MS/MS to determine compound levels.

Data set [3] concerns Madin-Darby Canine Kidney (MDCK) cells. Described as above. The format is in vitro ADME. The conditions noted are these: test compound 5 μM, 2 h at 37° C., apical to basolateral. The protocol:
as §1

Data set [4] can be described thus: Brain to plasma ratio (AUC 0-6 h) in female FVB mice. In kind it is in vivo. The settings on record: 100 mpk dose.
A further data set concerns the target T1, P-gp (Mus musculus, UniProt P21447).
T1 construct: FVB wild-type littermates, which expresses P-gp at their blood-brain barrier (BBB); from tissue; host or cells: blood-brain barrier / brain of FVB wild-type mice, compared with mdr1 a/b (-/-) mice, in vivo
Put plainly: In vivo P-gp liability assessment in mdr1 a/b (-/-) and wild type FVB mouse. The conditions noted are these: mdr1 a/b (-/-) vs FVB wild-type mice, 2.5 mg/Kg IV, 5 min post administration, ratio of Cb/Cp. The protocol: Use of mdr1 (−/−) mouse and its FVB wild-type littermates, which expresses P-gp at their blood-brain barrier (BBB), can distinguish between a test compound of high P-gp liability from one with a more desirable low P-gp liability.
Test compounds are administered to both the mdr1 a/b (−/−) and the FVB wild-type mice (N=4/strain) intravenously at 2.5 mg/Kg through the tail vein. Plasma and brains are harvested at 5 min post administration. Test compound is extracted from tissue in parallel with calibration curves prepared from age-matched control tissues, then quantitated by LC/MS/MS. The ratio of brain concentration (Cb) to plasma concentration (Cp) is used as a measure of brain penetration according to the following formula: Brain Penetration (P)=Cb/Cp Therefore, a measure of brain penetration in the mdr1 (−/−) mouse relative to that of the wild-type animal represents an assessment of in vivo P-gp efflux, which is analogous to that determine in vitro with MDR1-MDCK cells. Calculations are made according to the following formula: Pmdr1/PFVB=In vivo Efflux

“And” between values parts separate entries of the source, which are not always exact repeats. Equal entries are not always repeated. Where only a bound is given, the exact number is not on record here.

T1 sequence (P21447 whole entry): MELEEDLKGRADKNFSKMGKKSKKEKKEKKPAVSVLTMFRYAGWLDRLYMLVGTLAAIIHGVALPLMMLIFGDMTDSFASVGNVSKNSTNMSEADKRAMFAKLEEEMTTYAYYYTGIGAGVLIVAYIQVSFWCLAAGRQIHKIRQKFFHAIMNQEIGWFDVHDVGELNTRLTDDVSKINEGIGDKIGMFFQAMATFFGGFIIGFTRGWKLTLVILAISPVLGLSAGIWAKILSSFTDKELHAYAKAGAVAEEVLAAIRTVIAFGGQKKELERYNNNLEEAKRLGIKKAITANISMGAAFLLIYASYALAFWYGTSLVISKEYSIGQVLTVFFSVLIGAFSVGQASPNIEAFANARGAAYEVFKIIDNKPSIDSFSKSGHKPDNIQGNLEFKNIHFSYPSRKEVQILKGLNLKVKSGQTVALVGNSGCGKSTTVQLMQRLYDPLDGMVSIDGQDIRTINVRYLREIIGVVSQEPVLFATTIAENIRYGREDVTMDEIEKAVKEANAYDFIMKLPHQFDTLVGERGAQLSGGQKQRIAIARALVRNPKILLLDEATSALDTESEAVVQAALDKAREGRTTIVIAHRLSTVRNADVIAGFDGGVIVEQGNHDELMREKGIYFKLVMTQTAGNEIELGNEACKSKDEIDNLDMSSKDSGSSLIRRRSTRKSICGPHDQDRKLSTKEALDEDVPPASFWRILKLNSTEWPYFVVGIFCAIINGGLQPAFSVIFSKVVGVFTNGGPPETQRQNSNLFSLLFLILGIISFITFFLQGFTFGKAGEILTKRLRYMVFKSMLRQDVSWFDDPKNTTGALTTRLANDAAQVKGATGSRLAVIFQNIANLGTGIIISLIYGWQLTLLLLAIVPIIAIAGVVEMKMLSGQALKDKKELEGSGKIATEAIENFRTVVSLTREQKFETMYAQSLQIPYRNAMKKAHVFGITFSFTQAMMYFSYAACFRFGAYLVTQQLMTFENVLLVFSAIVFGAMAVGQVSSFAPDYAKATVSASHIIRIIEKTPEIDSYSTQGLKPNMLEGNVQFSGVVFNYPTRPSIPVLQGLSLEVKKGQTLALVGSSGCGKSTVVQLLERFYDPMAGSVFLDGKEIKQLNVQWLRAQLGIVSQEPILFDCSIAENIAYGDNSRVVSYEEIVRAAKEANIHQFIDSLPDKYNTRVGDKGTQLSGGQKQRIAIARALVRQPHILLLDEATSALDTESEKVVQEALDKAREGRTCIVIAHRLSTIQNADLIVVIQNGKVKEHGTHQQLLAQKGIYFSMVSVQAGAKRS

In the case of `CC(=O)NC(Cc1cc(F)cc(F)c1)C(O)CNC1(CCC(C)C)C2CCCC21` (stereo not drawn) [Example 3.1, N-(4-(6-isopentylbicyclo[3.1.0]hexan-6-ylamino)-1-(3,5-difluorophenyl)-3-hydroxybutan-2-yl)acetamide], in data set [1], the “Selectivity IC50 catD/IC50 BACE” value is > 3.7 and > 3.2. Take `CC(=O)NC(Cc1cc(F)cc(F)c1)C(O)CNC1(Cc2ccccc2F)CC1` (stereo not drawn) [Example 3.20, N-(1-(3,5-difluorophenyl)-4-(1-(2-fluorobenzyl)cyclopropylamino)-3-hydroxybutan-2-yl)acetamide]: in data set [2], the Papp A→B at 2 h, 5 μM was 21.2 ×10⁻⁶ cm/s. Consider `CC(=O)NC(Cc1cc(F)cc(F)c1)C(O)CNC1(Cc2cc(C(C)(C)C)on2)CC1` (stereo not drawn) [Example 3.10, N-(4-(1-((5-tert-butylisoxazol-3-yl)methyl)cyclopropylamino)-1-(3,5-difluorophenyl)-3-hydroxybutan-2-yl)acetamide], for which the Papp A→B at 2 h, 5 μM in data set [2] is 9.32 ×10⁻⁶ cm/s. In the case of `CC(=O)NC(Cc1cc(F)cc(F)c1)C(O)CNC1(CCCCC(C)(C)C)CC1` (stereo not drawn) [Example 3.11, N-(1-(3,5-difluorophenyl)-4-(1-(5,5-dimethylhexyl)cyclopropylamino)-3-hydroxybutan-2-yl)acetamide], in data set [2], the Papp A→B at 2 h, 5 μM amounted to 3.31 ×10⁻⁶ cm/s.

On to `CC(=O)NC(Cc1cc(F)cc(F)c1)C(O)CNC1(C(=O)NCCC(C)(C)C)CC1` (stereo not drawn) [Example 3.4, 1-(3-acetamido-4-(3,5-difluorophenyl)-2-hydroxybutylamino)-N-(3,3-dimethylbutyl)cyclopropanecarboxamide], for which, in data set [2], the Papp A→B at 2 h, 5 μM came out at 3.33 ×10⁻⁶ cm/s. Besides, in data set [3], the “Permeability Forward A > B” value stood at 4.56 ×10⁻⁶ cm/s.

With `CC(=O)NC(Cc1cc(F)cc(F)c1)C(O)CNC1(Cc2cn(CC(C)(C)C)nn2)CC1` (stereo not drawn) [Example 3.6, N-(1-(3,5-difluorophenyl)-3-hydroxy-4-(1-((1-neopentyl-1H-1,2,3-triazol-4-yl)methyl)cyclopropylamino)butan-2-yl)acetamide], the Papp A→B at 2 h, 5 μM in data set [2] is 4.31 ×10⁻⁶ cm/s.

Take `CC(=O)NC(Cc1cc(F)cc(F)c1)C(O)CNC1(C(=O)N(C)c2ccccc2)CC1` (stereo not drawn) [Example 3.18, 1-(3-acetamido-4-(3,5-difluorophenyl)-2-hydroxybutylamino)-N-methyl-N-phenylcyclopropanecarboxamide]: in data set [2], the Papp A→B at 2 h, 5 μM was 4.56 ×10⁻⁶ cm/s. The same measure, in the same setting: next, `CC(=O)NC(Cc1cc(F)cc(F)c1)C(O)CNC1(CCCCn2cccn2)CC1` (stereo not drawn) [Example 3.14, N-(4-(1-(4-(1H-pyrazol-1-yl)butyl)cyclopropylamino)-1-(3,5-difluorophenyl)-3-hydroxybutan-2-yl)acetamide]: 3.47 ×10⁻⁶ cm/s; `CC(=O)NC(Cc1cc(F)cc(F)c1)C(O)CNC1(C/C=C/CC(C)(C)C)CC1` (stereo not drawn) [Example 3.12, N-(1-(3,5-difluorophenyl)-4-(1-(5,5-dimethylhex-2-enyl)cyclopropylamino)-3-hydroxybutan-2-yl)acetamide]: 4.28 ×10⁻⁶ cm/s. On the same count and under the same terms, the figure for `CC(=O)NC(Cc1cc(F)cc(F)c1)C(O)CNC1(CSCC(C)(C)C)CC1` (stereo not drawn) [Example 3.3, N-(4-(1-((neopentylthio)methyl)cyclopropylamino)-1-(3,5-difluorophenyl)-3-hydroxybutan-2-yl)acetamide] is 10.1 ×10⁻⁶ cm/s; for `CC(=O)NC(Cc1cc(F)cc(F)c1)C(O)CNC1(CCOCC(C)(C)C)CC1C` (single isomer, unassigned) [Example 3.7, N-(4-(2-methyl-1-(2-(neopentyloxy)ethyl)cyclopropylamino)-1-(3,5-difluorophenyl)-3-hydroxybutan-2-yl)acetamide] it is 8.18 ×10⁻⁶ cm/s. For `CC(=O)NC(Cc1cc(F)cc(F)c1)C(O)CNC1(Cc2c(F)cccc2F)CC1` (stereo not drawn) [Example 3.19, N-(4-(1-(2,6-difluorobenzyl)cyclopropylamino)-1-(3,5-difluorophenyl)-3-hydroxybutan-2-yl)acetamide], the Papp A→B at 2 h, 5 μM in data set [2] was 19.1 ×10⁻⁶ cm/s. As to `CC(=O)NC(Cc1cc(F)cc(F)c1)C(O)CNC1(CCCn2cccn2)CC1` (stereo not drawn) [Example 3.13, N-(4-(1-(3-(1H-pyrazol-1-yl)propyl)cyclopropylamino)-1-(3,5-difluorophenyl)-3-hydroxybutan-2-yl)acetamide], the Papp A→B at 2 h, 5 μM in data set [2] amounted to 4.39 ×10⁻⁶ cm/s.

With `CC(=O)NC(Cc1cc(F)cc(F)c1)C(O)CNC1(CCOCC(C)(C)C)CC1` (stereo not drawn) [Example 3.15, N-(4-(1-(2-(neopentyloxy)ethyl)cyclopropylamino)-1-(3,5-difluorophenyl)-3-hydroxybutan-2-yl)acetamide], the Papp A→B at 2 h, 5 μM in data set [2] was 9.74 ×10⁻⁶ cm/s. One may read the Kp as the ratio of the level in a tissue or fluid to that in plasma or blood. For orientation: AUC(0-t) means exposure summed from dosing to a finite time, without extrapolation to infinity. As to `CC(=O)NC(Cc1cc(F)cc(F)c1)C(O)CNC1(CCCC(C)(C)C)CC1` (stereo not drawn) [Example 3.5, N-(1-(3,5-difluorophenyl)-4-(1-(4,4-dimethylpentyl)cyclopropylamino)-3-hydroxybutan-2-yl)acetamide], the “Brain AUC (0-6 h)” value in data set [4] is 28 µM·h. Besides, the Kp in data set [4] (mouse, brain and plasma, 100 mg/kg, AUC (0-6 h)) was found to be 2.1. Besides, the area under the curve AUC(0-t) in data set [4] (mouse, plasma, 100 mg/kg) worked out at 13 µM·h. In the case of `CC(=O)NC(Cc1cc(F)cc(F)c1)C(O)CNC1(CCCC(C)C)CC1` (stereo not drawn) [Example 3.2, N-(1-(3,5-difluorophenyl)-3-hydroxy-4-(1-(4-methylpentyl)cyclopropylamino)butan-2-yl)acetamide], the “Selectivity IC50 catD/IC50 BACE” value in data set [1] turned out to be 1.1. Further, the Papp A→B at 2 h, 5 μM in data set [2] was determined as 4.33 ×10⁻⁶ cm/s. As to `CC(=O)NC(Cc1cc(F)cc(F)c1)C(O)CNC1(C(=O)NCC(C)(C)C)CC1` (stereo not drawn) [Example 3.16, 1-(3-acetamido-4-(3,5-difluorophenyl)-2-hydroxybutylamino)-N-neopentylcyclopropanecarboxamide], the Papp A→B at 2 h, 5 μM in data set [2] worked out at 6.15 ×10⁻⁶ cm/s. As to `CNCC[C@@H](Oc1ccccc1C)c1ccccc1` [atomoxetine], the “in vivo P-gp efflux (Pmdr1/PFVB)” value on P-gp worked out at 1.17. Consider `CC(=O)NC(Cc1cc(F)cc(F)c1)C(O)CNC1(COCCC(C)(C)C)C2CCCC21` (stereo not drawn) [Example 3.9, N-(1-(3,5-difluorophenyl)-4-(6-((3,3-dimethylbutoxy)methyl)bicyclo[3.1.0]hexan-6-ylamino)-3-hydroxybutan-2-yl)acetamide], for which the Papp A→B at 2 h, 5 μM in data set [2] was found to be 4.73 ×10⁻⁶ cm/s. Consider `CC(=O)NC(Cc1cc(F)cc(F)c1)C(O)CNC1(CCOCC(C)(C)C)CC1C` (single isomer, unassigned) [Example 3.8, N-(4-(2-methyl-1-(2-(neopentyloxy)ethyl)cyclopropylamino)-1-(3,5-difluorophenyl)-3-hydroxybutan-2-yl)acetamide], for which the “Permeability Forward A > B” value in data set [3] came out at 11.84 ×10⁻⁶ cm/s.
